Measurements published in ChEMBL document CHEMBL1125091, “Antiulcer agents. 4-substituted 2-guanidinothiazoles: reversible, competitive, and selective inhibitors of gastric H+,K(+)-ATPase” (J Med Chem, 1990).
pIC50: −log10 of the molar value. “And” between values parts separate entries of the source, which are not always exact repeats. Equal entries are not always repeated.

Experiments:
[1] = target: Potassium-transporting ATPase (Canis familiaris); assay: Inhibitory activity against dog gastric proton-pump enzyme H+/K+ ATPase
[2] = tested on: Potassium-transporting ATPase (Canis familiaris); assay: Percent inhibition of gastric proton-pump enzyme H+/K+ ATPase was determined at 50 uM; conditions: Canis lupus familiaris, Stomach

Row | Compound | pIC50 [1] | inhibition [2]
1 | Cc1cccc(-c2csc(N=C(N)N)n2)c1 | 4.49 | 60%
2 | Cc1sc(NC(=N)NCc2ccccc2)nc1-c1ccc(O)c(O)c1 | 5.89 | 103%
3 | Cc1ccccc1-c1csc(N=C(N)N)n1 | 4.70 | 78%
4 | Cc1ccc2[nH]cc(-c3csc(N=C(N)N)n3)c2c1 | 5.74 | 76%
5 | N=C(NCc1ccccc1)Nc1nc(-c2cc3cc(Cl)ccc3[nH]2)cs1 | 5.04 | 97%
6 | Cc1cc(-c2csc(NC3=NCCN3C)n2)c[nH]1 | – | 13%
7 | Cc1c(-c2csc(NC(=N)NCc3ccccc3)n2)ccn1S(=O)(=O)c1ccccc1 | – | 54%
8 | Cc1sc(N=C(N)N)nc1-c1ccn(S(=O)(=O)c2ccccc2)c1C | 5.38 | 100%
9 | CCOC(=O)c1cc(-c2csc(N=C(N)N)n2)[nH]c1C | 5.15 | 91%
10 | Nc1nc(-c2c[nH]c(C=O)c2)cs1 | – | 9%
11 | COC(=O)c1ccc2[nH]cc(-c3csc(N=C(N)N)n3)c2c1 | 5.17 | 86%
12 | CN(C)Cc1ccccc1-c1csc(N=C(N)N)n1 | – | 27%
13 | COc1cccc(-c2csc(N=C(N)N)n2)c1 | 4.22 | 48%
14 | Cc1[nH]ccc1-c1nc(NC(=N)NCc2ccccc2)sc1C | 5.06 | 80%
15 | Cc1cc(-c2csc(N=C(N)N)n2)cn1C | 4.62 | 74%
16 | Cc1cc(-c2csc(NC(=N)N3CCCCC3)n2)c[nH]1 | – | 34%
17 | Cc1ccc(-c2csc(NC(=N)NCc3ccccc3)n2)n1S(=O)(=O)c1ccccc1 | 4.59 | 57%
18 | Cc1ccc(-c2csc(N=C(N)N)n2)n1S(=O)(=O)c1ccccc1 | 5.15 | 91%
19 | COc1ccc(-c2csc(N=C(N)N)n2)cc1OC | – | 41%
20 | COc1ccc(-c2csc(NC(=N)NCc3ccccc3)n2)cc1OC | – | 25%
21 | N=C(N)NCCc1c[nH]c2ccccc12 | – | 15%
22 | Cc1ccc(-c2csc(N=C(N)N)n2)cc1 | – | 61%
23 | CCCCCC/N=C(\N)Nc1nc(-c2c[nH]c(C)c2)cs1 | 5.15 | 93%

Row | Compound | pIC50 [1] | inhibition [2]
24 | CN(C)Cc1cc(-c2csc(N=C(N)N)n2)c[nH]1 | 5.05 | 94%
25 | Cc1cc(-c2csc(N)n2)c[nH]1 | – | 17%
26 | CCCCC/N=C(\N)Nc1nc(-c2cccc(OC)c2)cs1 | – | 25%
27 | COc1ccccc1-c1csc(NC(=N)NCc2ccccc2)n1 | 5.64 | 99%
28 | N=C(NCc1ccccc1)Nc1nc(-c2ccccc2Cl)cs1 | 5.22 | 99%
29 | N=C(NCc1ccccc1)Nc1nc(-c2c[nH]c3ccccc23)cs1 | 5.82 | 102%
30 | Cc1cccc2[nH]cc(-c3csc(NC(=N)NCc4ccccc4)n3)c12 | – | 103%
31 | N=C(NCc1ccccc1)Nc1nc(-c2c[nH]c3ccc(OCc4ccccc4)cc23)cs1 | 5.74 | 90%
32 | CCCCCC/N=C(\NC)Nc1nc(-c2c[nH]c(C)c2)cs1 | – | 68%
33 | Cc1c(-c2csc(N=C(N)N)n2)ccn1S(=O)(=O)c1ccccc1 | 5.70 | 101%
34 | Cc1ccc2[nH]cc(-c3csc(NC(=N)NCc4ccccc4)n3)c2c1 | 6.03 | 104%
35 | Cc1ccc(-c2csc(N=C(N)N)n2)n1C | – | 20%
36 | Cc1[nH]c2ccccc2c1-c1csc(NC(=N)NCc2ccccc2)n1 | 5.77 | 102%
37 | Cc1ccc(-c2csc(N=C(N)NCc3ccccc3)n2)[nH]1 | 5.15 | –
38 | Cc1sc(N=C(N)N)nc1-c1ccc(O)c(O)c1 | 5.80 | 97%
39 | Cc1ccc(C/N=C(\N)Nc2nc(-c3c[nH]c(C)c3)c(C)s2)cc1 | 5.54 | 95%
40 | Cc1cccc2c(-c3csc(NC(=N)NCc4ccccc4)n3)c[nH]c12 | 6.00 | 92%
41 | Cc1nc(-c2c[nH]c(C=O)c2)cs1 | – | 5%
42 | N#Cc1ccc2[nH]cc(-c3csc(NC(=N)NCc4ccccc4)n3)c2c1 | – | 50%
43 | Cc1sc(NC(=N)NCc2ccccc2)nc1-c1c[nH]c2ccccc12 | – | 34%
44 | Cc1cc(-c2nc(NC(=N)Nc3ccccc3)sc2C)c[nH]1 | 5.01 | 83%
45 | N=C(NCc1ccccc1)Nc1nc(-c2ccc(-c3ccccc3)cc2)cs1 | – | 5%
46 | Cc1ccccc1-c1csc(NC(=N)NCc2ccccc2)n1 | 5.00 | 111%

Row | Compound | pIC50 [1] | inhibition [2]
47 | N=C(NCc1ccccc1)Nc1nc(-c2c[nH]c3ccc(F)cc23)cs1 | 5.57 | 96%
48 | CC(=O)Nc1ccc2[nH]cc(-c3csc(NC(=N)NCc4ccccc4)n3)c2c1 | 4.62 | 66%
49 | N=C(NCc1ccccc1)Nc1nc(-c2cc3cc(F)ccc3[nH]2)cs1 | – | 49%
50 | Cc1sc(N=C(N)N)nc1-c1c[nH]c2ccccc12 | 5.12 | 92%
51 | Cc1sc(N=C(N)N)nc1-c1c[nH]c2ccc(Cl)cc12 | 6.23 | 99%
52 | Cc1cc(-c2csc(NC(=N)NCc3ccc(Cl)cc3)n2)c[nH]1 | 5.15 | 95%
53 | COC(=O)c1ccc2[nH]cc(-c3csc(NC(=N)NCc4ccccc4)n3)c2c1 | 5.51 | 94%
54 | CN(C)c1ccc(-c2csc(N=C(N)N)n2)cc1 | 4.85 | 75%
55 | Cc1cc(-c2nc(NC(=N)NCc3ccccc3)sc2C)c[nH]1 | 5.10 | 83%
56 | Cc1[nH]c2ccc(Cl)cc2c1-c1nc(NC(=N)NCc2ccccc2)sc1C | 5.96 | 100%
57 | Cc1sc(NC(=N)NCc2ccccc2)nc1-c1ccn(S(=O)(=O)c2ccccc2)c1C | – | 35%
58 | Cc1sc(N=C(N)NCc2ccccc2)nc1-c1c[nH]c2ccc(Cl)cc12 | 6.15 | –
59 | Cc1cc(-c2csc(C)n2)c[nH]1 | – | 0%
60 | COc1ccc2[nH]cc(-c3csc(N=C(N)N)n3)c2c1 | 4.72 | 70%
61 | N=C(N)Nc1nc(-c2c[nH]c(CN3CCCCC3)c2)cs1 | – | 55%
62 | Cn1cc(-c2csc(N=C(N)N)n2)cc1C=O | – | 44%
63 | Cc1cc(-c2csc(NC3=NCCCN3Cc3ccccc3)n2)c[nH]1 | – | 19%
64 | Cc1cccc2[nH]cc(-c3csc(N=C(N)NCc4ccccc4)n3)c12 | 5.48 | –
65 | CCCCCCN(C)C(=N)Nc1nc(-c2c[nH]c(C)c2)cs1 | – | 54%
66 | Cc1cc(-c2csc(NC(=N)NCc3ccccc3)n2)cn1S(=O)(=O)c1ccccc1 | – | 69%
67 | NC(N)=Nc1cc(Cl)nc(-c2ccccc2)n1 | 5.22 | –
68 | Cc1[nH]c(-c2csc(N=C(N)N)n2)cc1C(=O)N(C)C | – | 33%
69 | Cc1cc(-c2csc(NC3=NCCN3)n2)c[nH]1 | – | 25%

More lines, now with the values ahead:

Row | pIC50 [1] | inhibition [2] | Compound
70 | – | 26% | N=C(N)Nc1nc(-c2ccccc2O)cs1
71 | 5.00 | 85% | COc1cccc(-c2csc(NC(=N)NCc3ccccc3)n2)c1
72 | – | 44% | N=C(N)Nc1nc(-c2c[nH]c(C=O)c2)cs1
73 | – | 68% | N=C(N)Nc1nc(-c2cc[nH]c2)cs1
74 | – | 83% | Cc1ccc(-c2csc(NC(=N)NCc3ccccc3)n2)[nH]1
75 | – | 16% | N=C(N)Nc1ccc(-c2ccccc2)cc1
76 | – | 49% | N/C(=N\Cc1ccccc1)Nc1nc(-c2ccc(O)cc2)cs1
77 | – | 80% | N#Cc1ccc2[nH]cc(-c3csc(NC(=N)N)n3)c2c1
78 | – | 8% | N/C(=N\Cc1ccccc1)Nc1nc(-c2cccc(O)c2)cs1
79 | 4.85 | 72% | N=C(N)Nc1nc(-c2cc3ccccc3[nH]2)cs1
80 | 4.28 | 48% | N=C(N)Nc1nc(-c2cccc(Cl)c2)cs1
81 | – | 52% | N=C(N)Nc1nc(-c2ccccc2)cs1
82 | 5.40 | 87% | N=C(N)Nc1nc(-c2cc3cc(F)ccc3[nH]2)cs1
83 | – | 89% | N=C(N)Nc1cc(Cl)nc(-c2ccccc2)n1
84 | – | 35% | N=C(NCc1ccccc1)Nc1nc(-c2ccc(F)cc2)cs1
85 | – | 80% | N=C(NCc1ccccc1)Nc1nc(-c2cccc(Cl)c2)cs1
86 | – | 45% | N=C(N)Nc1nc(-c2cccc(N)c2)cs1
87 | – | 25% | N=C(N)Nc1nc(-c2ccc(-c3ccccc3)cc2)cs1
88 | 4.49 | 63% | N=C(N)Nc1nc(-c2ccc(N)cc2)cs1

Row | pIC50 [1] | inhibition [2] | Compound
89 | 5.28 | 77% | N/C(=N\Cc1ccccc1)Nc1nc(-c2ccc(N)cc2)cs1
90 | 4.96 | 97% | Cc1cc(-c2csc(NC(=N)NCc3ccccc3)n2)c[nH]1
91 | – | 53% | Cc1cccc(-c2csc(NC(=N)NCc3ccccc3)n2)c1
92 | 5.92 | 78% | N=C(N)Nc1nc(-c2c[nH]c3ccc(OCc4ccccc4)cc23)cs1
93 | 5.05 | 91% | N=C(N)Nc1nc(-c2c[nH]c3ccccc23)cs1
94 | – | 24% | COc1ccc(-c2csc(NC(=N)NCc3ccccc3)n2)cc1
95 | – | 38% | N=C(NCc1ccccc1)Nc1nc(-c2ccc(Cl)cc2)cs1
96 | 4.64 | 69% | N=C(N)Nc1nc(-c2cccc(O)c2)cs1
97 | 4.52 | 68% | N=C(N)Nc1nc(-c2ccc[nH]2)cs1
98 | – | -1% | N=C(NCc1ccccc1)Nc1nc(-c2ccccc2)cs1
99 | – | 52% | CN(C)c1cccc(-c2csc(NC(=N)N)n2)c1
100 | 4.96 | 85% | N/C(=N\Cc1ccccc1)Nc1nc(-c2ccccc2O)cs1
101 | 5.05 | 81% | N=C(NCc1ccccc1)Nc1nc(-c2ccc[nH]2)cs1
102 | 4.82 | 75% | N=C(N)Nc1nc(-c2ccc(O)cc2)cs1
103 | 4.74 and 5.05 | 71% | N=C(N)Nc1nc(-c2ccccc2Cl)cs1
104 | – | 48% | N=C(N)Nc1nc(-c2ccc(Cl)cc2)cs1
105 | – | 0% | N=C(N)Nc1nc(-c2ccccc2)co1
106 | – | 16% | Cc1ccc(-c2csc(NC(=N)NCc3ccccc3)n2)cc1
107 | 4.40 | – | NC(N)=Nc1nc(-c2ccccc2)cs1
